Measured values taken from patent US10385065B2, “Antibacterial compounds” (priority 2014, dated 2019).
≈ marks a conversion by molar mass, not a printed value. Read-outs that look alike come from different tables or passages of the source.

Legend:
Format in all cases: cell-based
[1] = system: Haemophilus influenzae ATCC 49247; assay: MIC, H. influenzae ATCC 49247; conditions: ATCC49247, Table 4
[2] = system: human hepatic cell line (HepG2 ATCC HB-8065); assay: Human cell viability assay (CellTiter-Glo), HepG2; conditions: HepG2, 24 h incubation, tested over 1-128 μg/mL, read-out: IC50 values against HepG2
In short: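 HepG2 seeded at 20,000 cells/well, then after 24 h given two-fold serial dilutions (1-128 μg/mL, 1% DMSO) in DMEM with 0.001% FBS and 0.3% albumin. After 24 h at 37 °C, ATP luminescence (CellTiter-Glo) read; IC50 is the concentration halving viability.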

[3] = system: Enterococcus faecium ATCC 19434; assay: MIC, E. faecium ATCC 19434; conditions: ATCC19434, Table 2
[4] = system: S. aureus NRS100 MRSA; assay: MIC, S. aureus NRS100; conditions: Staphylococcus aureus; Table 2
[5] = system: Escherichia coli ATCC 25922; assay: MIC, broth microdilution, E. coli ATCC 25922; conditions: ATCC25922, Table 1, wild type strain
[6] = system: Staphylococcus aureus ATCC 29213; assay: MIC, broth microdilution, S. aureus ATCC 29213
[7] = system: S. aureus (MRSA) ATCC 43300; assay: MIC, S. aureus ATCC 43300; conditions: Staphylococcus aureus; Table 2; read-out: MIC S. aureus (MRSA) ATCC 43300 Heterogeneous MRSA strain
[8] = system: S. aureus NRS1 MRSA; assay: MIC, S. aureus NRS1; conditions: Staphylococcus aureus; Table 2; read-out: MIC S. aureus NRS1 MRSA AMG & TET resistant
[9] = system: S. epidermidis NRS101 MRSE; assay: MIC, S. epidermidis NRS101; conditions: Staphylococcus epidermidis; Table 2; read-out: MIC S. epidermidis NRS101 MRSE AMG, ERY resistant
[10] = system: S. aureus VRS1 MRSA VAN resistant; assay: MIC, S. aureus VRS1; conditions: Staphylococcus aureus, Table 2
[11] = system: S. aureus NRS127 MRSA LZD resistant; assay: MIC, S. aureus NRS127; conditions: Staphylococcus aureus; Table 2
[12] = system: S. aureus NRS482 MRSA FQ resistant; assay: MIC, S. aureus NRS482; conditions: Staphylococcus aureus; Table 2
[13] = system: S. aureus SACPX1-SP25 MSSA - FQ resistant; assay: microbe, parasite or virus in culture; conditions: Staphylococcus aureus, ATCC 29213 / MSSA, read-out: MIC S. aureus SACPX1-SP25 MSSA - FQ resistant (isogenic mutant of ATCC 29213)
[14] = system: Legionella pneumophila ATCC 33152; assay: microbe, parasite or virus in culture; conditions: ATCC33152, 48 h, read-out: MIC Legionella pneumophila ATCC 33152
[15] = ATCC29213, Table 1, wild type strain, read-out: MIC S. aureus ATCC 29213
[16] = ATCC 29213 / MSSA, Table 2, read-out: MIC S. aureus (MSSA) ATCC 29213 CLSI control strain

SMILES | MIC [1] | IC50 [2] | MIC [3] | MIC [4] | MIC [5] | MIC [6, 15] | MIC [6, 16] | MIC [7] | MIC [8] | MIC [9] | MIC [10] | MIC [11] | MIC [12] | MIC [13] | MIC [14]
Cc1nc2c(=O)n(C3CC3)c3cc(N4CCC(C(C)N)C4)c(F)cc3c2o1 (centres unmarked) [Compound 54, 7-[3-(1-aminoethyl)pyrrolidin-1-yl]-5-cyclopropyl-8-fluoro-2-methyl-oxazolo[4,5-c]quinolin-4-one] | 1 to 10 µg/mL (≈ 2.7 to 27 µM) | 10 to 100 µg/mL (≈ 27 to 270 µM) | 10 to 100 µg/mL (≈ 27 to 270 µM) | 1 to 10 µg/mL (≈ 2.7 to 27 µM) | 1 to 10 µg/mL (≈ 2.7 to 27 µM) | 1 to 10 µg/mL (≈ 2.7 to 27 µM) | 1 to 10 µg/mL (≈ 2.7 to 27 µM) | – | – | – | – | – | – | – | –
C[C@H]1COc2c(-c3ccc(N)nc3)ccc3c4ocnc4c(=O)n1c23 [Compound 95, (-2S)-6-(6-aminopyridin-3-yl)-2-methyl-4,11-dioxa-1,13-diazatetracyclo[7.6.1.0^5,^16.0^10,^14]hexadeca-5(16),6,8,10(14),12-pentaen-15-one] | < 1 µg/mL | > 100 µg/mL | 10 to 100 µg/mL (≈ 29.9 to 299 µM) | – | 1 to 10 µg/mL (≈ 2.99 to 29.9 µM) | 1 to 10 µg/mL (≈ 2.99 to 29.9 µM) | 1 to 10 µg/mL (≈ 2.99 to 29.9 µM) | 1 to 10 µg/mL (≈ 2.99 to 29.9 µM) | 1 to 10 µg/mL (≈ 2.99 to 29.9 µM) | 1 to 10 µg/mL (≈ 2.99 to 29.9 µM) | 1 to 10 µg/mL (≈ 2.99 to 29.9 µM) | 1 to 10 µg/mL (≈ 2.99 to 29.9 µM) | 1 to 10 µg/mL (≈ 2.99 to 29.9 µM) | – | –
Cc1c(-c2cc(F)c(N)cc2F)ccc2c3scnc3c(=O)n(C3CC3)c12 [Compound 108, 7-(4-amino-2,5-difluorophenyl)-5-cyclopropyl-6-methyl-thiazolo[4,5-c]quinolin-4-one] | < 1 µg/mL | 10 to 100 µg/mL (≈ 26.1 to 261 µM) | 10 to 100 µg/mL (≈ 26.1 to 261 µM) | – | 1 to 10 µg/mL (≈ 2.61 to 26.1 µM) | < 1 µg/mL | < 1 µg/mL | < 1 µg/mL | < 1 µg/mL | < 1 µg/mL | < 1 µg/mL | < 1 µg/mL | < 1 µg/mL | < 1 µg/mL | –
Cc1nc2c(=O)n(C3CC3)c3c(C)c(-c4ccc(C(N)=O)cc4)ccc3c2o1 [Compound 26] | 1 to 10 µg/mL (≈ 2.68 to 26.8 µM) | > 100 µg/mL | > 100 µg/mL | – | > 100 µg/mL | < 1 µg/mL | < 1 µg/mL | 1 to 10 µg/mL (≈ 2.68 to 26.8 µM) | 1 to 10 µg/mL (≈ 2.68 to 26.8 µM) | < 1 µg/mL | 1 to 10 µg/mL (≈ 2.68 to 26.8 µM) | 1 to 10 µg/mL (≈ 2.68 to 26.8 µM) | 1 to 10 µg/mL (≈ 2.68 to 26.8 µM) | – | –
Cc1nc2c(=O)n3c4c(c(N5CC[C@H](CN)C5)c(F)cc4c2o1)OC[C@@H]3C [Compound 89, (2S)-6-[(3R)-3-(aminomethyl)pyrrolidin-1-yl]-7-fluoro-2,12-dimethyl-4,11-dioxa-1,13-diazatetracyclo[7.6.1.0^5,^16.0^10,^14]hexadeca-5(16),6,8,10(14),12-pentaen-15-one] | 1 to 10 µg/mL (≈ 2.69 to 26.9 µM) | 10 to 100 µg/mL (≈ 26.9 to 269 µM) | 10 to 100 µg/mL (≈ 26.9 to 269 µM) | – | 1 to 10 µg/mL (≈ 2.69 to 26.9 µM) | 1 to 10 µg/mL (≈ 2.69 to 26.9 µM) | 1 to 10 µg/mL (≈ 2.69 to 26.9 µM) | 1 to 10 µg/mL (≈ 2.69 to 26.9 µM) | 1 to 10 µg/mL (≈ 2.69 to 26.9 µM) | – | 1 to 10 µg/mL (≈ 2.69 to 26.9 µM) | 10 to 100 µg/mL (≈ 26.9 to 269 µM) | 1 to 10 µg/mL (≈ 2.69 to 26.9 µM) | 1 to 10 µg/mL (≈ 2.69 to 26.9 µM) | 1 to 10 µg/mL (≈ 2.69 to 26.9 µM)
Cc1c(-c2ccc3[nH]ncc3c2)ccc2c3scnc3c(=O)n(C3CC3)c12 [Compound 109, 5-Cyclopropyl-7-(1H-indazol-5-yl)-6-methyl-thiazolo[4,5-c]quinolin-4-one] | 1 to 10 µg/mL (≈ 2.68 to 26.8 µM) | – | > 100 µg/mL | – | < 1 µg/mL | < 1 µg/mL | < 1 µg/mL | < 1 µg/mL | < 1 µg/mL | 1 to 10 µg/mL (≈ 2.68 to 26.8 µM) | < 1 µg/mL | < 1 µg/mL | < 1 µg/mL | – | –
